Test results as given in US9718817B2, “Aryl and heteroaryl ether compounds as ROR gamma modulators” (Glenmark Pharmaceuticals S.A., priority 2014, dated 2017).

Target: T1, GST-tagged ROR gamma ligand binding domain (LBD) (Homo sapiens, UniProt P51449)
T1 construct: purchased Invitrogen
T1 sequence (P51449 269-508 limits assumed): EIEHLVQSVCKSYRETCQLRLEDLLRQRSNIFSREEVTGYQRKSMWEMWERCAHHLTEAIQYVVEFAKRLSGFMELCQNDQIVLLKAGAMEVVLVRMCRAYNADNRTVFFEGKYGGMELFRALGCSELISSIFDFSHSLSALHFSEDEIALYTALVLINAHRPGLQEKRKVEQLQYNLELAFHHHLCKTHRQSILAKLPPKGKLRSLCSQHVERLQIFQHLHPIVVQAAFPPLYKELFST
Assay: TR-FRET assay for ROR gamma (LanthaScreen co-activator peptide recruitment)
Assay type: biochemical
Settings: for IC50: class symbols, from dose response curve; for inhibition at 1 µM: compound 1 μM; for inhibition at 1 µM / inhibition at 10 µM: TR-FRET ratio 520/495, percent of control; for inhibition at 10 µM: compound 10 μM
Source text: The compounds described herein were screened for ROR gamma modulator activity using the TR-FRET assay by Lantha Screen as described in JBC 2011, 286, 26: 22707-10; and Drug Metabolism and Disposition 2009, 37, 10: 2069-78.
The assay is based on the principle that binding of the agonist to the ROR gamma causes a conformational change around helix 12 in the ligand binding domain, resulting in higher affinity for the co-activator peptide. ROR gamma being constitutively active, the Fluorescein-D22 co-activator peptide used in the assay is recruited in the absence of a ligand. Binding of the co-activator peptide, causes an increase in the TR-FRET signal while binding of an antagonist decreases the recruitment of the co-activator peptide, causing a decrease in the TR-FRET signal compared to control with no compound. The assay was performed using a two-step procedure, pre-incubation step with the compound followed by the detection step on addition of the anti-GST tagged terbium (Tb) and fluorescein tagged fluorophores as the acceptor.
Test compounds or reference compounds such as T0901317 (Calbiochem) were dissolved in dimethylsulfoxide (DMSO) to prepare 10.0 mM stock solutions and diluted to the desired concentration. The final concentration of DMSO in the reaction was 4% (v/v). The assay mixture was prepared by mixing 10 nM of the GST-tagged ROR gamma ligand binding domain (LBD) in the assay buffer containing 25 mM HEPES (pH 7.4), 100 mM NaCl, 5 mM DTT and 0.01% BSA with or without the desired concentration of the compound. The reaction was incubated at 22° C. for 1 hour. The pre-incubation step was terminated by addition of the detection mixture containing 300 nM Fluorescein-D22 co-activator peptide and 10 nM lantha screen Tb-anti GST antibody into the reaction mixture. After shaking for 5 minutes the reaction was further incubated for 1 hour at room temperature and read at 4° C. on an Infinite F500 reader as per the kit instructions (Invitrogen). The inhibition of test compound was calculated based on the TR-FRET ratio of 520/495. The activity was calculated as a percent of control reaction. IC50 values were calculated from dose response curve by nonlinear regression analysis using GraphPad Prism software.
Percentage inhibition at concentrations of 1.0 μM and 10.0 μM are given in the table along with IC50 (nM) details for selected examples.

Structure (SMILES)	IC50 [nM]	inhibition at 1 µM [%]	inhibition at 10 µM [%]
CCS(=O)(=O)c1ccc(CC(=O)Nc2ccc(C#CC(C)(C)Oc3ccc(C(F)(F)F)cc3)cc2)cc1 [Example 76, 2-(4-Ethanesulfonyl-phenyl)-N-{4-[3-methyl-3-(4-trifluoromethyl-phenoxy)-but-1-yn-1-yl]-phenyl}-acetamide]	< 50	82.2	86.2
CCS(=O)(=O)c1ccc(CC(=O)Nc2ccc(OC3(c4ccc(Cl)cc4Cl)CCCC3)c(F)c2)cc1 [Example 137, N-(4-((1-(2,4-Dichlorophenyl)cyclopentyl)oxy)-3-fluorophenyl)-2-(4-(ethylsulfonyl)phenyl)acetamide]	< 50	80	86.5
CCS(=O)(=O)c1ccc(CC(=O)Nc2cc(F)c(OC(C)(C)c3ccc(Cl)cc3Cl)c(F)c2)cc1 [Example 109, N-{4-[1-(2,4-Dichloro-phenyl)-1-methyl-ethoxy]-3,5-difluoro-phenyl}-2-(4-ethanesulfonyl-phenyl)-acetamide]		16.6	17.2
CCS(=O)(=O)c1ccc(CC(=O)Nc2ccc(OC3(c4ccc(Cl)c(F)c4)CC3)nc2)cc1 [Example 52, N-{6-[1-(4-Chloro-3-fluoro-phenyl)-cyclopropoxy]-pyridin-3-yl}-2-(4-ethanesulfonyl-phenyl)-acetamide]		63.7	83.8
CCS(=O)(=O)c1ccc(CC(=O)Nc2ccc(OC3(c4ccc(F)cc4F)COC3)c(F)c2)cc1 [Example 142, N-(4-((3-(2,4-Difluorophenyl)oxetan-3-yl)oxy)-3-fluorophenyl)-2-(4-(ethylsulfonyl)phenyl)acetamide]	< 50	81.1	81.5
CCS(=O)(=O)c1ccc(CC(=O)Nc2ccc(OC3(c4ccc(Cl)c(F)c4)CCOCC3)cc2)cc1 [Example 38, N-{4-[4-(4-Chloro-3-fluoro-phenyl)-tetrahydro-pyran-4-yloxy]-phenyl}-2-(4-ethanesulfonyl-phenyl)-acetamide]	< 50	85.8	87.8
CCn1c(C(C)(C)Oc2ccc(F)c(F)c2F)nc2cc(NC(=O)Cc3ccc(S(=O)(=O)CC)cc3)ccc21 [Example 91, 2-(4-Ethanesulfonyl-phenyl)-N-{1-ethyl-2-[1-methyl-1-(2,3,4-trifluoro-phenoxy)-ethyl]-1H-benzoimidazol-5-yl}-acetamide]	< 50	90	90.6
CCn1c(C(C)(C)Oc2cc(F)ccc2F)nc2cc(NC(=O)Cc3ccc(S(=O)(=O)CC)cc3)ccc21 [Example 126, N-{2-[1-(2,5-Difluorophenoxy)-1-methylethyl]-1-ethyl-1H-benzoimidazol-5-yl}-2-(4-ethanesulfonylphenyl)-acetamide]	< 50	85.9	89.5
CCS(=O)(=O)c1ccc(CC(=O)Nc2ccc(C#CC(C)(C)Oc3ccc(Cl)cc3F)nc2)cc1 [Example 80, N-{6-[3-(4-Chloro-2-fluoro-phenoxy)-3-methyl-but-1-yn-1-yl]-pyridin-3-yl}-2-(4-ethanesulfonyl-phenyl)-acetamide]		50.2	62.4
CCS(=O)(=O)c1ccc(CC(=O)Nc2ccc(OC3(c4ccc(Cl)c(F)c4)CCC3)cc2)cc1 [Example 32, N-(4-{[1-(4-Chloro-3-fluorophenyl)cyclobutyl]oxy}phenyl)-2-[4-(ethylsulfonyl)phenyl]acetamide]	< 50	83.7	88.5
CCN(C(=O)C(C)(C)Oc1ccc(NC(=O)Cc2ccc(S(=O)(=O)CC)cc2)cc1)c1ccc(Cl)c(F)c1 [Example 130, N-(4-Chloro-3-fluorophenyl)-N-ethyl-2-(4-(2-(4-(ethylsulfonyl)phenyl)acetamido)phenoxy)-2-methylpropanamide]	> 100	73	85.2
CCn1c(C(C)(C)Oc2cc(F)c(F)cc2F)nc2cc(NC(=O)Cc3ccc(S(=O)(=O)CC)cc3)ccc21 [Example 92, 2-(4-Ethanesulfonyl-phenyl)-N-{1-ethyl-2-[1-methyl-1-(2,4,5-trifluoro-phenoxy)-ethyl]-1H-benzoimidazol-5-yl}-acetamide]	< 50	91.5	93.1
CCn1c(C(C)(C)Oc2ccc(F)cc2F)nc2cc(NC(=O)Cc3ccc(S(=O)(=O)CC)cc3)ccc21 [Example 88, N-{2-[1-(2,4-Difluoro-phenoxy)-1-methyl-ethyl]-1-ethyl-1H-benzoimidazol-5-yl}-2-(4-ethanesulfonyl-phenyl)-acetamide]	< 50	86.2	96.1
CCS(=O)(=O)c1ccc(CC(=O)Nc2ccc(OC3(c4ccc(Cl)c(F)c4)CCC3)nc2)cc1 [Example 54, N-{6-[1-(4-Chloro-3-fluoro-phenyl)-cyclobutoxy]-pyridin-3-yl}-2-(4-ethanesulfonyl-phenyl)-acetamide]	< 50	92	93.7
CCS(=O)(=O)c1ccc(CC(=O)Nc2ccc(C#CC(C)(C)Oc3ccc(F)c(F)c3)cc2)cc1 [Example 70, N-{4-[3-(3,4-Difluoro-phenoxy)-3-methyl-but-1-yn-1-yl]-phenyl}-2-(4-ethanesulfonyl-phenyl)-acetamide]	< 50	77.7	81.3
CCS(=O)(=O)c1ccc(CC(=O)Nc2ccc(OC3(c4ccc(F)c(F)c4)CCOCC3)cc2)cc1 [Example 35, N-{4-[4-(3,4-Difluoro-phenyl)-tetrahydro-pyran-4-yloxy]-phenyl}-2-(4-ethanesulfonyl-phenyl)-acetamide]	50 to 100	79.5	86.7
CCS(=O)(=O)c1ccc(CC(=O)Nc2ccc(OC(C)(C)Cn3ccc4cc(Cl)ccc43)cc2)cc1 [Example 29, N-(4-{[1-(5-Chloro-1H-indol-1-yl)-2-methylpropan-2-yl]oxy}phenyl)-2-[4-(ethylsulfonyl)phenyl]acetamide]	< 50	80.3	82.8
CCS(=O)(=O)c1ccc(CC(=O)Nc2ccc(OC3(c4ccc(Cl)cc4F)CCC3)cc2)cc1 [Example 33, N-(4-{[1-(4-Chloro-2-fluorophenyl)cyclobutyl]oxy}phenyl)-2-[4-(ethylsulfonyl)phenyl]acetamide]		76.7	81.8
CCS(=O)(=O)c1ccc(CC(=O)Nc2ccc(OC3(c4ccc(Cl)cc4Cl)COC3)cc2)cc1 [Example 47, N-{4-[3-(2,4-Dichlorophenyl)-oxetan-3-yloxy]-phenyl}-2-(4-ethanesulfonyl-phenyl)-acetamide]	< 50	90.3	93.2
CCS(=O)(=O)c1ccc(CC(=O)Nc2ccc(OC(C)(C)c3ccc(Cl)cc3F)nc2)cc1 [Example 56, N-{6-[1-(4-Chloro-2-fluoro-phenyl)-1-methyl-ethoxy]-pyridin-3-yl}-2-(4-ethanesulfonyl-phenyl)-acetamide]	< 50	83.1	91.3
